Assay results as given in ChEMBL document CHEMBL5512659, “Structure optimizing of flavonoids against both MRSA and VRE” (Eur J Med Chem, 2024).
In brackets after ≈: the same amount, converted by molar mass.

Experiments:
[1] = test system: Staphylococcus aureus; experiment: Antibacterial activity against methicillin resistant Staphylococcus aureus clinical isolate 003; format: functional
[2] = test system: Enterococcus faecalis; experiment: Antibacterial activity against multidrug resistant Enterococcus faecalis ATCC 51299; format: functional

| Compound | MIC [1] | MIC [2] |
| --- | --- | --- |
| CC(C)=CCc1c(O)ccc(C(=O)[C@@H]2[C@@H](c3ccc(O)cc3O)CC(C)=C[C@H]2c2c(O)cc(O)c3c(=O)c(CC=C(C)C)c(-c4ccc(O)cc4O)oc23)c1O | 2.5 µg/mL (≈ 3.29 µM) | 5 µg/mL (≈ 6.57 µM) |
| CCCCCCCCCCc1c(-c2ccc(O)cc2O)oc2cc(O)cc(O)c2c1=O | 16 µg/mL (≈ 37.5 µM) | 32 µg/mL (≈ 75 µM) |
| CCCCCCCCCCCCc1c(-c2ccc(O)cc2O)oc2cc(OC)cc(O)c2c1=O | 16 µg/mL (≈ 34.1 µM) | 32 µg/mL (≈ 68.3 µM) |
| CC(C)=CCc1c(-c2ccc(O)cc2O)oc2c(CC=C(C)C)c(O)cc(O)c2c1=O [KUWANON C] | 5 µg/mL (≈ 11.8 µM) | 10 µg/mL (≈ 23.7 µM) |
| CCc1c(-c2ccc(O)cc2O)oc2cc(OC)cc(O)c2c1=O | > 64 µg/mL | 64 µg/mL (≈ 195 µM) |
| COc1cc(O)c2c(=O)c(CCC=C(C)C)c(-c3ccc(O)cc3O)oc2c1 | 16 µg/mL (≈ 41.8 µM) | 32 µg/mL (≈ 83.7 µM) |
| O=c1cc(-c2ccc(O)cc2O)oc2cc(O)cc(O)c12 [NORARTOCARPETIN] | > 64 µg/mL | > 64 µg/mL |
| CCCCCc1c(-c2ccc(OC)cc2OC)oc2cc(OC)cc(OC)c2c1=O | > 64 µg/mL | > 64 µg/mL |
| CCCCc1c(-c2ccc(O)cc2O)oc2cc(O)cc(O)c2c1=O | 32 µg/mL (≈ 93.5 µM) | 32 µg/mL (≈ 93.5 µM) |
| CCCCCCc1c(-c2ccc(O)cc2O)oc2cc(O)cc(O)c2c1=O | 8 µg/mL (≈ 21.6 µM) | 16 µg/mL (≈ 43.2 µM) |
| CC(C)=CCc1c(-c2ccc(O)cc2O)oc2c([C@H]3C=C(C)C[C@@H](c4ccc(O)cc4O)[C@@H]3C(=O)c3ccc(O)cc3O)c(O)cc(O)c2c1=O [KUMANON G] | 5 µg/mL (≈ 7.22 µM) | 5 µg/mL (≈ 7.22 µM) |
| CC(C)=CCc1c(-c2ccc(O)cc2O)oc2c3c(cc(O)c2c1=O)OC(C)(C)C=C3 [MORUSIN] | 5 µg/mL (≈ 11.9 µM) | 5 µg/mL (≈ 11.9 µM) |
| CCCc1c(-c2ccc(O)cc2O)oc2cc(O)cc(O)c2c1=O | 64 µg/mL (≈ 195 µM) | > 64 µg/mL |
| O=c1c(CCCCc2ccccc2)c(-c2ccc(O)cc2O)oc2cc(O)cc(O)c12 | 16 µg/mL (≈ 38.2 µM) | 32 µg/mL (≈ 76.5 µM) |
| COc1ccc(-c2oc3cc(OC)cc(OC)c3c(=O)c2CCC=C(C)C)c(OC)c1 | > 64 µg/mL | > 64 µg/mL |
| CCCCCCCCCCc1c(-c2ccc(OC)cc2OC)oc2cc(OC)cc(OC)c2c1=O | > 64 µg/mL | > 64 µg/mL |

| Compound | MIC [1] | MIC [2] |
| --- | --- | --- |
| CCCCc1c(-c2ccc(OC)cc2OC)oc2cc(OC)cc(OC)c2c1=O | > 64 µg/mL | > 64 µg/mL |
| CCCCc1c(-c2ccc(O)cc2O)oc2cc(OC)cc(O)c2c1=O | 16 µg/mL (≈ 44.9 µM) | 32 µg/mL (≈ 89.8 µM) |
| CC(C)=CCc1c(-c2ccc(O)c3c2OC(C)(C)C=C3)oc2cc(O)cc(O)c2c1=O [KUWANON A] | 5 µg/mL (≈ 11.9 µM) | 10 µg/mL (≈ 23.8 µM) |
| CCc1c(-c2ccc(O)cc2O)oc2cc(O)cc(O)c2c1=O | > 64 µg/mL | > 64 µg/mL |
| CCCCCCCCCCc1c(-c2ccc(O)cc2O)oc2cc(OC)cc(O)c2c1=O | 16 µg/mL (≈ 36.3 µM) | 16 µg/mL (≈ 36.3 µM) |
| CCCCCCCCCCCCCCCCc1c(-c2ccc(OC)cc2OC)oc2cc(OC)cc(OC)c2c1=O | > 64 µg/mL | > 64 µg/mL |
| CCc1c(-c2ccc(OC)cc2OC)oc2cc(OC)cc(OC)c2c1=O | > 64 µg/mL | > 64 µg/mL |
| COc1cc(O)c2c(=O)cc(-c3ccc(O)cc3O)oc2c1 [ARTOCARPETIN] | > 64 µg/mL | > 64 µg/mL |
| COc1ccc(-c2cc(=O)c3c(OC)cc(OC)cc3o2)c(OC)c1 | > 64 µg/mL | > 64 µg/mL |
| C=CCc1c(-c2ccc(O)cc2O)oc2cc(O)cc(O)c2c1=O | 64 µg/mL (≈ 196 µM) | > 64 µg/mL |
| COc1ccc(-c2oc3cc(OC)cc(OC)c3c(=O)c2CCCCc2ccccc2)c(OC)c1 | > 64 µg/mL | > 64 µg/mL |
| CCCCCc1c(-c2ccc(O)cc2O)oc2cc(OC)cc(O)c2c1=O | 8 µg/mL (≈ 21.6 µM) | 16 µg/mL (≈ 43.2 µM) |
| CCCCCCc1c(-c2ccc(OC)cc2OC)oc2cc(OC)cc(OC)c2c1=O | > 64 µg/mL | > 64 µg/mL |
| COc1cc(O)c2c(=O)c(CCCCc3ccccc3)c(-c3ccc(O)cc3O)oc2c1 | 8 µg/mL (≈ 18.5 µM) | 16 µg/mL (≈ 37 µM) |
| CCCCCCCCCCCCCCCCc1c(-c2ccc(O)cc2O)oc2cc(O)cc(O)c2c1=O | > 64 µg/mL | > 64 µg/mL |
| CCCc1c(-c2ccc(O)cc2O)oc2cc(OC)cc(O)c2c1=O | 32 µg/mL (≈ 93.5 µM) | 64 µg/mL (≈ 187 µM) |
